From article PMC3391680, “Selective and Specific Inhibition of the Plasmodium falciparum Lysyl-tRNA Synthetase by the Fungal Secondary Metabolite Cladosporin” (Cell Host & Microbe, 2012) come the findings set out here.

Molecules are shown by their SMILES. Where two headings read alike, the source gives them in different places. *1 amine or outer side, *2 acyl side, *3 side chain or, on linkers, in order; H or OH if unused. Where a SMILES comes first, the peptide text is derived from it. [ ]: non-standard residue; d: D form. X1 = CC(C)([C@@H]1CO1)n1cc([C@@H](O)[C@H](CC(=O)[*:2])N[*:1])c2ccccc21; NMeLeu(5-OH,4R) = CN[C@@H](C[C@@H](C)CO)C(=O)O; Nle(4R-Me-5-ene) = C=C[C@H](C)C[C@H](N)C(=O)O; Phe(βR-OMe) = CO[C@H](c1ccccc1)[C@H](N)C(=O)O; NMeL = CN[C@@H](CC(C)C)C(=O)O

Assay [1] has as its system T1, Plasmodium falciparum Dd2.
T1 construct: Dd2
Briefly: microbe, parasite or virus in culture. More on the design: species or system Plasmodium falciparum Dd2 in human erythrocytes; Asexual blood-stage parasite proliferation, SYBR Green I DNA fluorescence. Particulars: DD2, Erythrocyte, 72 h, read-out: IC50 values (nM). Here is the method: Powershot G10 camera attached to the microscope and imported in Adobe Photoshop and Illustrator for image sizing and figure generation, respectively. SYBR Green cell proliferation assay. Compounds were tested for activity against asexual blood stage parasites using a previously described screening method (Plouffe et al., 2008). […] Toxoplasma gondii culturing and assay methods. The tachyzoite stage of Toxoplasma gondii (RH1, GFP-luc) was maintained by serial passage in human foreskin fibroblasts (HFF) cultured in Hank’s Buffered Salt Solution (HBSS) supplemented with 10% FBS, 2 mM L-glutamine, and 100 μg penicillin/100 μg streptomycin per milliliter maintained at 37 °C and 5% CO2. Parasites were harvested for use in assays by syringe lysis of infected HFF monolayers. Parasites were then centrifuged at 1,200 × g for 6 min and resuspended in HBSS supplemented with 10 mM Hepes, pH 7.0, and 1% (v/v) dialyzed FBS. All buffers were filter sterilized by passage through a […] Millipore Syringe Filter. Approximately 50,000 parasites and 5,000 HFF cell were incubated with compounds for 48 hours at 37 °C. Parasite and host cell proliferation rates were then determined using Bright-Glo® and CellTiter-Glo® (Promega). Maintenance, synchronization and imaging of erythrocytic stage P. falciparum cultures. A clonal stock of the P. falciparum line Dd2 (parental clone) was established by limiting dilution from a Dd2 isolate (MRA-156) obtained from the Malaria Research and Reference Reagent Resource Center (MR4; American Type Culture Collection), and used throughout these studies. All P. falciparum parasites were cultured in human erythrocytes and complete culturing media (CM) as previously described (Dharia et al., 2009). Highly synchronous cultures were achieved using the sorbitol synchronization method (Lambros and Vanderberg, 1979). Visualization of parasites were performed on Giemsa-stained thin blood smears under a 100x oil immersion objective on a Zeiss Primo Star light microscope. Digital images were captured using a Canon

In assay [2] the test system is T2, Saccharomyces cerevisiae BY4743Δ8.
T2 construct: BY4743Δ8 (eight drug-resistance genes deleted: SNQ2, PDR5, YOR1, PDR1, PDR2, PDR3, YAP1, YRM1)
Briefly: microbe, parasite or virus in culture. On the set-up: Yeast growth inhibition, optical density at 600 nm, dose response. The settings on record: rich media, no added lysine, read-out: Cladosporin IC50 (µM) Rich media. How it is done: (§1) SUPPLEMENTAL FIGURES Figure S1 | Cladosporin inhibition of S. cerevisiae wild type strain BY4743 and a drug efflux mutant strain BY4743Δ8, related to Figure 1. Yeast growth in the presence of cladosporin was measured by optical density at 600 nm (OD600) and the 30% inhibitory concentration (IC30) and 50% inhibitory concentration (IC50) of cell growth were determined. Assay plates seeded with the respective strains were grown in rich medium and incubated 11 hours against a 12-point dilution series of cladosporin (0-200 µM). Data were collected from duplicate experiments, normalized with a DMSO control and expressed as the means±SD. A logistic regression curve fit algorithm on the recorded OD600 values was performed to determine the aforementioned IC30 and IC50 values. Strain BY4743Δ8, derived from BY4741 but deleted for eight genes involved in drug resistance (efflux pumps, SNQ2, PDR5, YOR1; transcription factors, PDR1, PDR2, PDR3, YAP1, YRM1) was incubated in 2.5% ethylmethanesulfonate until only 50% of the cells formed colonies. […] Of these 37, ten colonies contained nonsynonymous mutations in the KRS1 open reading frame. […] Curves were calculated by taking the 16 hr OD600 measurements and applying a logistic regression curve fit. […]

For assay [3], the target named is T3, human lysyl-tRNA synthetase (human Krs1) (Homo sapiens, UniProt Q15046).
T3 construct: gene KARS1; purified recombinant human enzyme (Origene TP300311)
T3 sequence (Q15046 2-597): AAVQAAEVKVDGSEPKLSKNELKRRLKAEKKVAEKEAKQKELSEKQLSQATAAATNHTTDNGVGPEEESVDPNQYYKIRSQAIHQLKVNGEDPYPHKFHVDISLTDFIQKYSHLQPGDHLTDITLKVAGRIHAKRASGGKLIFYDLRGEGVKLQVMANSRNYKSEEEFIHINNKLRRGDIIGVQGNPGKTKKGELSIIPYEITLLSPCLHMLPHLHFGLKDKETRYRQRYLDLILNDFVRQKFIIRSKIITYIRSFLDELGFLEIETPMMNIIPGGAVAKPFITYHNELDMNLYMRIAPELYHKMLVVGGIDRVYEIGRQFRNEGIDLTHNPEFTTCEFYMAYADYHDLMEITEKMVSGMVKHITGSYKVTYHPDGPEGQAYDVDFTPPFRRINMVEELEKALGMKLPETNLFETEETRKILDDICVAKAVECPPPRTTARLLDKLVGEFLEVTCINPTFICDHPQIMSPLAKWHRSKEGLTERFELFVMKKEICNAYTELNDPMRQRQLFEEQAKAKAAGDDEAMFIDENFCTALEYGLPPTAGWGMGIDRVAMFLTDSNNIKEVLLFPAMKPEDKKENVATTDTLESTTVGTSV
Kind of assay: Transcreener AMP fluorescence polarization aminoacylation assay with recombinant enzyme; weak inhibition. It counts as biochemical. For orientation: Fluorescence polarisation rises when a labelled molecule tumbles more slowly, as on binding a larger partner.

Assay [4] deals with T2, Saccharomyces cerevisiae BY4743Δ8. Briefly: microbe, parasite or virus in culture. Particulars: synthetic media, no added lysine, read-out: Cladosporin IC50 (µM) Synthetic media. On the set-up: Yeast growth inhibition, optical density at 600 nm, dose response. Here is the method: as §1, with “Assay plates seeded with the respective strains were grown in rich medium and incubated 11 hours against a 12-point dilution series of cladosporin (0-200 µM).” left out, “colonies. A total of 2 × 10^7 mutagenized CMB970 cells were plated on two 14 cm dishes with synthetic complete medium (0.7 g/l Difco Yeast Nitrogen Base without amino acids, 0.79 g/l MPbio CSM amino acid mixture, 2% glucose) containing 50 μM cladosporin. After 4 days, 37 resistant colonies appeared.” for “colonies.”

Assay [5] addresses T4, P. falciparum cytosolic lysyl-tRNA synthetase (PfKrs1) (Plasmodium falciparum, UniProt Q8IDJ8).
T4 construct: gene PF3D7_1350100; recombinant PF13_0262, codon-optimized, in pET-28a(+), expressed in E. coli and purified
Kind of assay: Transcreener AMP fluorescence polarization aminoacylation assay with recombinant enzyme. It counts as biochemical.

T4 sequence (Q8IDJ8 entry or part of it): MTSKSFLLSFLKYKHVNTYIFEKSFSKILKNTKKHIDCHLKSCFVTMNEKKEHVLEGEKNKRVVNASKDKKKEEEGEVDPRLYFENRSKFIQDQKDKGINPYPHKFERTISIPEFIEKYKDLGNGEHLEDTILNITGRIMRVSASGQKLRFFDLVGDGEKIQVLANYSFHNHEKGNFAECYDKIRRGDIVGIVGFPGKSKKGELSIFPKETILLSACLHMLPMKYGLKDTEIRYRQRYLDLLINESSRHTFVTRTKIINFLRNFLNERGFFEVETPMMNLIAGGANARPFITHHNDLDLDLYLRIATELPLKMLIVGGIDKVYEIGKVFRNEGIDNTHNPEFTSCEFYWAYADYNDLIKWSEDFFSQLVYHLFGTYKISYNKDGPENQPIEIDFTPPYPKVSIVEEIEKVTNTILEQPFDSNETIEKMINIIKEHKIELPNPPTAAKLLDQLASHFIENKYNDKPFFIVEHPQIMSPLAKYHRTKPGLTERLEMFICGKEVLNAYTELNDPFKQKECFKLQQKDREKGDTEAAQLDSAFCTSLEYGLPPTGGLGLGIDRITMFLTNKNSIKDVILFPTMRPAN

For the compound `C=C[C@H](C)C[C@@H]1NC(=O)[C@H](CC(C)C)N(C)C(=O)[C@H](C(C)C)NC(=O)[C@H]([C@H](OC)c2ccccc2)NC(=O)[C@H](C)NC(=O)[C@H](C[C@@H](C)CO)N(C)C(=O)C[C@@H]([C@H](O)c2cn(C(C)(C)[C@@H]3CO3)c3ccccc23)NC1=O` [CycA, cyclomarin A] (cyclo(A[Phe(βR-OMe)]V[NMeL][Nle(4R-Me-5-ene)][X1][NMeLeu(5-OH,4R)])), in assay [1], the IC50 is 48.8 ± 10.1 nM.

As for `CCc1nc(N)nc(N)c1-c1ccc(Cl)cc1` [PYR, pyrimethamine], in assay [1], the concentration for half-maximal inhibition (IC50) is above 10000 nM.

On to `O[C@@H](c1cc(C(F)(F)F)nc2c(C(F)(F)F)cccc12)[C@H]1CCCCN1` (racemic) [MFQ, mefloquine], for which the IC50 in assay [1] was 9 nM.

As for `C[C@H]1CCC[C@H](C[C@H]2Cc3cc(O)cc(O)c3C(=O)O2)O1` [cladosporin], the IC50 is 7.92 µM in assay [2], above 20000 nM in assay [3], 18.4 µM in assay [4] and 61 nM in assay [5].

Turning to `O=C1C(O)=C([C@H]2CC[C@H](c3ccc(Cl)cc3)CC2)C(=O)c2ccccc21` [ATQ, atovaquone], the IC50 in assay [1] was 0.8 ± 0.2 nM.

The term IC50 denotes the point on the concentration scale where inhibition reaches its midpoint.
